Reference: patent US20180030080A1, “Phosphoramidate nucleoside prodrug for treating viral diseases and cancer, processes for their preparation and their use” (ASAVI, LLC, priority 2016, published 2018)
Where two headings read alike, the source gives them in different places.

Experiments:
HIV [1] = details: in PBMCs, relative to TFV; cited from earlier work
[2] = 28-day toxicity studies in multiple species; cited from earlier work
HIV [3] = details: most potent and least cytotoxic analog; cited from earlier work
wild-type HIV-1 = details: cited from earlier work
HBV = test: Anti-HBV activity in the AD-38 cell line using real-time quantitative PCR; format: cell-based
Method: Anti-HBV activity of prodrugs of general formula 1 determination in the AD-38 cell line using a real-time quanitative PCR. a) Cell cultures. HepG2 AD38 cell line, harboring an integrated over-the-length HBV genomic DNA (Lander S, et. al, Antimicrobal Agents and Chemotherapy, 1997, pg. 1715-1720) were provided by Dr. C. Seeger, Fox Chase Cancer Center, Philadelphia, Pa.). Cells were grown in complete media (DMEM/F12 with 2 mM L-Glutamine (Thermo Scientific, Cat #11320033), 10% Fetal Bovine Serum (ThermoFisher Scientific, Cat#), 1% Antibiotic-antimitotic solution (ThermoFisher Scientific, Cat#15240096), and 0.3 μg/ml tetracyclin (Sigma, Cat # T7660-5G). Cells were plated onto Corning Biocoat 96-well plates (Corning, Cat #356407) in 225 ul of complete media (without teracyclin), 20000 cells/well. The prodrugs of general formula 1 were dissolved first in DMSO (Sigma cat. D2650), then in DMEM/F12 and 9 serial 3× dilutions were prepared and added to cells in 22.5 μl. The final prodrugs concentrations ranged from 10 μM to 1 nM. Cells grown in the presence of tetracyclin were used as a positive control, as HBV replication in this cell line is turned off by thetracyclin. Cell plates were incubated for 4 days at 37 C, 5% CO2. b) HBV DNA isolation. After 4 days, viral DNA was isolated from culture supernatants using PureLink® Pro 96 Genomic DNA Purification Kit (ThermoFisher Scientific, Cat # K183104A), according to manufacturer's recommendations. Eluted DNA samples were stored at −20 C. c) Quantitative real-time PCR (qPCR). PCR was performed on the CFX96™ Real-Time System (Bio-Rad, Hercules, Calif.) using AmpliTaq Gold® DNA Polymerase (Applied Biosystems®).
Ct values (cycle threshold) were obtained for each prodrug sample and normalized to untreated cells, according to formula E=(1/(1+100%))̂(Ct[studied prodrug sample]−Ct[K-]), where E is a normalized expression of studied gene, Ct[K-] and Ct[studied prodrug sample] are Ct values of untreated cells and studied prodrug sample. Inhibition curves were obtained and EC50 values were calculated using the Graph Prizm software (Table 3).

HepG2 AD38 cell line = test: Cytotoxicity (viability, CC50) reported with the anti-HBV test; format: cell-based; details: concentration not given
[4] = as above; format: cell-based; details: human, HepG2 AD38 cells
HCV replicon gT3a = test: HCV replicon assay, genotype gT3a; format: cell-based; details: Hepatitis C virus, mean
Method: (§1) Anti-HCV activity (EC50) and cytotoxicity (CC50) of prodrugs of general formula 1. The HCV replicon assay was used to determine the antiviral activity of chemotherapeutic agents of general formula 1 (test compounds). Sovaldi (PSI-7977) was used as the reference drug. The test cell line used in the HCV Replicon Assay was the human hepatoma cell line Huh7 incorporating the HCV replicons synthesized by an outside vendor. 96-well plates were seeded with cells at a density of 7.5×10^3 cells per well in 50 μl of assay media. The compound stock solution was made up freshly in an assay medium (DMEM 1×, Cellgro; cat. #10-013-CV) as a 2× stock. A total of 11 serial 3-fold dilutions of test compounds were prepared from the 2× stock in the assay media ranging from 20 nM-0.2 pM final concentrations. At least 4 hours after seeding the cells, compound treatment was initiated by adding 50 μl of compound dilution to the plates. […] The final DMSO concentration was 0.5%. Cells and inhibitors were incubated for 3 days at 37° C./5% CO2. The media was removed from the plates by gentle tapping. The cells were fixed with 100 μl 1:1 acetone:methanol for 1 minute, washed three times with PBS buffer, and then blocked with 150 μl/well 10% Fetal Bovine Serum (FBS) in PBS for 1 hour at room temperature. The cells were then washed three times with PBS buffer and incubated with 100 μl/well anti-hepatitis C core mAb (Affinity BioReagents; cat. # MA1-080, 1 mg/ml stock diluted 1:4,000 in 10% FBS-PBS) for 2 hours at 37° C. Then, the cells were washed three times with PBS and incubated with 100 μl/well HRP-Goat Anti-Mouse antibody (diluted 1:3.500 in 10% FBS-PBS) for 1 hour at 37° C. […] The reaction was stopped with 2N H2SO4 (100 μl/well), and the absorbance was measured at A490 X on a Victor^3 V 1420 multilabel counter (Perkin Elmer). The EC50 values were calculated for test compounds from the resulting best-fit equations determined by Xlfit software (Table 1).

HCV replicon gT1a = test: HCV replicon assay, genotype gT1a; format: cell-based; details: Hepatitis C virus, mean
Method: as §1

HCV replicon gT2a = test: HCV replicon assay, genotype gT2a; format: cell-based; details: Hepatitis C virus, mean
Method: Anti-HCV activity (EC50) and cytotoxicity (CC50) of prodrugs of general formula 1. The HCV replicon assay was used to determine the antiviral activity of chemotherapeutic agents of general formula 1 (test compounds). Sovaldi (PSI-7977) was used as the reference drug. The test cell line used in the HCV Replicon Assay was the human hepatoma cell line Huh7 incorporating the HCV replicons synthesized by an outside vendor. 96-well plates were seeded with cells at a density of 7.5×10^3 cells per well in 50 μl of assay media. The compound stock solution was made up freshly in an assay medium (DMEM 1×, Cellgro; cat. #10-013-CV) as a 2× stock. A total of 11 serial 3-fold dilutions of test compounds were prepared from the 2× stock in the assay media ranging from 20 nM-0.2 pM final concentrations. At least 4 hours after seeding the cells, compound treatment was initiated by adding 50 μl of compound dilution to the plates. The final concentrations of compound therefore ranged from 10 nM to 0.1 pM when diluted 1:1 in culture media. The final DMSO concentration was 0.5%. Cells and inhibitors were incubated for 3 days at 37° C./5% CO2. The media was removed from the plates by gentle tapping. The cells were fixed with 100 μl 1:1 acetone:methanol for 1 minute, washed three times with PBS buffer, and then blocked with 150 μl/well 10% Fetal Bovine Serum (FBS) in PBS for 1 hour at room temperature. The cells were then washed three times with PBS buffer and incubated with 100 μl/well anti-hepatitis C core mAb (Affinity BioReagents; cat. # MA1-080, 1 mg/ml stock diluted 1:4,000 in 10% FBS-PBS) for 2 hours at 37° C. Then, the cells were washed three times with PBS and incubated with 100 μl/well HRP-Goat Anti-Mouse antibody (diluted 1:3.500 in 10% FBS-PBS) for 1 hour at 37° C. […] The reaction was stopped with 2N H2SO4 (100 μl/well), and the absorbance was measured at A490 X on a Victor^3 V 1420 multilabel counter (Perkin Elmer). The EC50 values were calculated for test compounds from the resulting best-fit equations determined by Xlfit software (Table 1).

Huh7 = test: Cytotoxicity in Huh7 cells (ATPLite); format: cell-based, human; details: at a concentration of 100 μM
Method: The cytotoxicity of the test compounds was studied in parallel using the same cell line, Huh7. Cell viability was determined using the ATPLite Kit (Perkin-Elmer, Boston, USA), according to manufacturer's instructions. 96-well black/transparent bottom plates were seeded with cells at a density of 7.5×10^3 cells per well in 50 μl medium. After 18 hours, compound treatment was initiated by adding 50 μl of compound dilution into the plates. Each compound dilution was tested in triplicates. The cells and inhibitors were then incubated for 96 hours at 37° C./5% CO2. The plates were washed twice with PBS (0.2 ml/well), and then lysed by adding lysis buffer, 0.05 ml/well (all reagents were included with the ATPLite Kit). After rocking for 5 min on a rocking platform, substrate buffer was added (0.05 ml/well). After additional 5-min incubation, the plates were kept in dark for 10 min, and the luminescence was read using TopCount NXT (Packard, Perkin Elmer). CC50 values for all test compounds were determined using XLfit 4.1 software.

HCV replicon gT4a = test: HCV replicon assay, genotype gT4a; format: cell-based; details: Hepatitis C virus, mean
Method: as §1

HCV replicon gT5a = test: HCV replicon assay, genotype gT5a; format: cell-based; details: Hepatitis C virus, mean
Method: as §1

HCV replicon gT1b = test: HCV replicon assay, genotype gT1b; format: cell-based; details: Hepatitis C virus
Method: Anti-HCV activity (EC50) and cytotoxicity (CC50) of prodrugs of general formula 1. The HCV replicon assay was used to determine the antiviral activity of chemotherapeutic agents of general formula 1 (test compounds). Sovaldi (PSI-7977) was used as the reference drug. The test cell line used in the HCV Replicon Assay was the human hepatoma cell line Huh7 incorporating the HCV replicons synthesized by an outside vendor. 96-well plates were seeded with cells at a density of 7.5×10^3 cells per well in 50 μl of assay media. The compound stock solution was made up freshly in an assay medium (DMEM 1×, Cellgro; cat. #10-013-CV) as a 2× stock. A total of 11 serial 3-fold dilutions of test compounds were prepared from the 2× stock in the assay media ranging from 20 nM-0.2 pM final concentrations. At least 4 hours after seeding the cells, compound treatment was initiated by adding 50 μl of compound dilution to the plates. […] The final DMSO concentration was 0.5%. Cells and inhibitors were incubated for 3 days at 37° C./5% CO2. The media was removed from the plates by gentle tapping. The cells were fixed with 100 μl 1:1 acetone:methanol for 1 minute, washed three times with PBS buffer, and then blocked with 150 μl/well 10% Fetal Bovine Serum (FBS) in PBS for 1 hour at room temperature. The cells were then washed three times with PBS buffer and incubated with 100 μl/well anti-hepatitis C core mAb (Affinity BioReagents; cat. # MA1-080, 1 mg/ml stock diluted 1:4,000 in 10% FBS-PBS) for 2 hours at 37° C. Then, the cells were washed three times with PBS and incubated with 100 μl/well HRP-Goat Anti-Mouse antibody (diluted 1:3.500 in 10% FBS-PBS) for 1 hour at 37° C. The cells were then washed three times with PBS and developed with an OPD solution, 100 μl/well (1 OPD tablet+12 ml citrate/phosphate buffer+5 μl 30% H2O2 per plate), for 30 minutes in the dark at room temperature. The reaction was stopped with 2N H2SO4 (100 μl/well), and the absorbance was measured at A490 X on a Victor^3 V 1420 multilabel counter (Perkin Elmer). The EC50 values were calculated for test compounds from the resulting best-fit equations determined by Xlfit software (Table 1).

HBV wild-type = details: against both the wild-type and resistant mutant; cited from earlier work
[5] = test system: HBV lamivudine-entecavir resistant clone (L180M+M204V+S202G); details: resistant mutant (L180M+M204V+S202G); cited from earlier work
[6] = in the clinic; cited from earlier work
HCV replicon = details: cited from earlier work
[7] = test system: xenograft models of human pancreatic cancer; details: in vivo; cited from earlier work

## CC(C)OC(=O)[C@H](C)N[P@](=O)(CO[C@H](C)Cn1cnc2c(N)ncnc21)Oc1ccccc1 [TAF, (S)-Isopropyl 2-(((S)-((((R)-1-(6-amino-9H-purin-9-yl)propan-2-yl)oxy)methyl)(phenoxy)-phosphoryl)amino)propanoate]
HIV [1]
  more potent than TFV: 400 fold

## CC(C)OC(=O)[C@H](C)N[P@](=O)(CO[C@@H]1C=C(F)C(n2cnc3c(N)ncnc32)O1)Oc1ccccc1 (stereo partly drawn) [GS-9131]
[2]
  renal findings: no significant renal findings

## CCOC(=O)[C@H](C)N[P@](=O)(OC[C@@H]1OC[C@H](n2cnc3c(NC4CC4)ncnc32)O1)Oc1ccccc1 [dioxolane-A mono-phosphoramidate]
HIV [3]
  EC50: 86 nM

## CCOC(=O)[C@H](C)N[P@](=O)(OC[C@@H]1OC[C@H](n2cc(C)c(=O)[nH]c2=O)O1)Oc1ccc(Br)cc1 [DOT-phosphoramidate, D-dioxolane-thymine 5′-(4-bromophenylethyloxy-L-alanyl-phosphate)]
wild-type HIV-1
  more potency relative to DOT: 75 fold

## C=CCOC(=O)[C@H](C)N[P@](=O)(OC[C@@H]1O[C@H](n2cc(C)c(=O)[nH]c2=O)[C@H](F)[C@H]1O)Oc1ccccc1 [1.2(67), allyl (S)-2-{(S)-[(2S,3S,4R,5S)-4-fluoro-3-hydroxy-5-(5-methyl-2,4-dioxo-3,4-dihydro-2H-pyrimidin-1-yl)-tetrahydro-furan-2-ylmethoxy]-phenoxy-phosphorylamino}-propanoate]
HBV; Hepatitis B virus, 96 h
  EC50: 760 ± 110 nM
HBV; against HBV, concentration not given
  inhibition, %: 88%
HepG2 AD38 cell line
  viability, %: 95%
[4]
  CC50: > 30000 nM

## CC(C)OC(=O)[C@H](C)NP(=O)(OC[C@H]1O[C@@H](n2ccc(=O)[nH]c2=O)[C@](C)(F)[C@@H]1O)Oc1ccccc1 (stereo partly drawn) [PSI-7851, reference compound]
HCV replicon gT3a
  IC50: 152 nM
HCV replicon gT1a
  IC50: 103 nM
HCV replicon gT2a
  IC50: 39 nM
Huh7
  Cell death: 31%
HCV replicon gT4a
  IC50: 350 nM
HCV replicon gT5a
  IC50: 395 nM
HCV replicon gT1b; GT1B, read-out: IC50 HCV gT1b 10% FBS (mean)
  IC50: 61 nM
HCV replicon gT1b; gT1b, 40% NHS, mean, read-out: IC50 HCV gT1b 40% NHS (mean)
  IC50: 80 nM

## 2′-Fluoro-6′-methylene-carbocyclic adenosine phosphoramidate [5′-phosphoramidate of FMCA]
HBV wild-type
  more potent than FMCA: 10 fold
[5]
  EC50: 54 nM

## COc1nc(N)nc2c1ncn2[C@@H]1O[C@H](COP(=O)(N[C@@H](C)C(=O)OCC(C)(C)C)Oc2cccc3ccccc23)[C@@H](O)[C@@]1(C)O (stereo partly drawn) [INX-08189]
[6]
  cardiovascular toxicity: severe cardiovascular toxicity
HCV replicon
  EC50: 10 nM

## C[C@H](NP(=O)(OC[C@H]1O[C@@H](n2ccc(N)nc2=O)C(F)(F)[C@@H]1O)Oc1ccccc1)C(=O)OCc1ccccc1 (stereo partly drawn) [NUC-1031, Gemcitabin-5′-phosphoramidate]
[7]
  tumor volume: significantly reduced tumor volume
